Columns and labels:
Format in all cases: in vivo, Drosophila melanogaster
[1] = system: FS (dFMR1-3+frame shifted rescue fragment) flies; assay: Naive courtship behavior (courtship index toward virgin female), FS flies; conditions: for naive courtship: MPEP 20 μg/ml, LY341495 400 nM in food
From the text: (§1) Learning and memory (cognitive abilities) can be examined in Drosophila by utilizing several available learning and memory paradigms. The most popular is a classical conditioning paradigm in which the flies learn to associate electric shocks with olfactory cues (Dudia et al, 1976; Davis, 1993; Tully, 1994). An alternative paradigm to study learning and memory in Drosophila is called conditioned courtship, wherein a male fly learns to modify his courtship behavior after experience with an unreceptive female; it is a multi-sensory paradigm involving associations from more then one sensory input (Siegel and Hall, 1979; for review see Hall, 1994). It is a more complex associative learning paradigm and was utilized to assay learning and memory in this article to elucidate the role of dFMR1 in learning and memory (Tompkins et al, 1980; Tompkins et al, 1982; Tompkins et al, 1983; Tompkins et al, 1984; Ackerman and Siegel, 1986). Courting male flies perform a characteristic sequence of behaviors: orienting toward and following the female, tapping her with his forelegs, vibrating one or both wings, licking her genitalia, and attempting copulation (Sturtevant, 1915; Bastock and Manning, 1955; Bastock, 1956). These behaviors are repeated with some variation until successful copulation occurs. Virgin females will generally respond by mating; however, recently mated females will be unreceptive and will not allow copulation to occur (Spieth, 1974), they display different behaviors (Bastock and Manning, 1955; Connolly and Cook, 1973) and have an altered, although somewhat overlapping, pheromonal profile (Cobb and Ferveur, 1996). The naive male will find a previously mated female to have a pheromonal repertoire that is less provocative then that of a virgin female target. A naive male paired with a mated female will initially court her, but his courtship activity soon decreases; after 1 hour of experience with the mated female, his courtship when subsequently paired with a virgin female remains depressed for 2-3 hours (Siegel and Hall, 1979). This effect is not a general suppression of all courtship activity since a male's tendency to court an immature male is not suppressed (Gailey et al, 1984). […] These behaviors are quantified as a courtship index (CI) which is defined as the percentage of time a male fly spends performing any of the six courtship steps toward a target female in a ten minute test period. A decrease in CI after training with a previously mated female is indicative of behavioral plasticity in the form of learning or memory.
Since we use female targets that are not etherized (therefore they are freely moving), and the w118 and dfmr1-3 flies may have slightly impaired visual acuity due to lack of eye pigmentation, and since visual inputs affect courtship behavior, all subsequent experiments were done utilizing only the genotypes Rescue: dfmr1-3+wild type rescue fragment, and FS: dfmr1-3+frame shifted rescue fragment. Both of these genotypes have more pigmentation and similar levels of eye pigmentation to each other. For FIGS. 4 and 5, a high concentration of MPEP (1,000 μg/ml) was used. For the remainder of the experiments the food was either control (CT) or exactly the same control food containing the appropriate concentration of MPEP (M). The position of the CT and the M are indicative of the point at which the group was on the particular food. The first letter indicates the food type that the larvae grew up on, and the second letter denotes the food type that the adult flies were placed on within four hours of eclosion, […] fresh food.
Naive males were placed in the training chamber for one hour with no female, and then placed with a virgin target female for a ten-minute interval. The naive courtship behavior was reduced by high MPEP concentration in Rescue (p<0.0001) and FS (p<0.0005) lines, and it was depressed to similar levels by high MPEP treatment in the Rescue and FS groups (FIG. 2A). […]

[2] = system: Rescue (dFMR1-3+wild type rescue fragment) flies; assay: Naive courtship behavior (courtship index toward virgin female), Rescue flies; conditions: for naive courtship: MPEP 20 μg/ml, LY341495 400 nM in food
From the text: as §1
Since we use female targets that are not etherized (therefore they are freely moving), and the w118 and dfmr1-3 flies may have slightly impaired visual acuity due to lack of eye pigmentation, and since visual inputs affect courtship behavior, all subsequent experiments were done utilizing only the genotypes Rescue: dfmr1-3+wild type rescue fragment, and FS: dfmr1-3+frame shifted rescue fragment. Both of these genotypes have more pigmentation and similar levels of eye pigmentation to each other. For FIGS. 4 and 5, a high concentration of MPEP (1,000 μg/ml) was used. For the remainder of the experiments the food was either control (CT) or exactly the same control food containing the appropriate concentration of MPEP (M). The position of the CT and the M are indicative of the point at which the group was on the particular food. The first letter indicates the food type that the larvae grew up on, and the second letter denotes the food type that the adult flies were placed on within four hours of eclosion, and for the four following days, until the day before testing when they were placed on fresh food.
In order to determine if MPEP can get into the Drosophila central nervous system (CNS) through feeding behavior, we mixed MPEP into the food at a concentration of 1,000 μg/ml ([…]). Males were raised on CT food and then placed on either CT or M food. […]

[3] = system: FS flies lacking dfmr1 activity; assay: Short-term memory (60 mins) with mated female targets, FS flies; conditions: for short-term memory, mated female target: 86 μM MPEP, 400 nM LY341495, 573 μM MPPG, 348 μM MTPG; for memory at 60 minutes post training, mated female target: 5 day old, 8.6 mM MPEP, 400 nM LY341495
Description: Effects of drug treatment on short-term memory (60 mins) in flies lacking dfmr1 activity with mated female targets. Short-term (60 min.) memory was measured in Rescue and FS flies that were either fed control food or underwent various drug treatments as described below. Short-term memory was measured by placing a trained male in a holding chamber for 60 minutes (after being trained for one hour with a previously mated female), then subsequently placing him in a testing chamber with a mated female target for a ten-minute courtship interval (C.I.). This C.I. was compared to the C.I. obtained for naïve courtship of a previously mated female, i.e., C.I. during the first 10 minutes of the training session with a previously mated female. Additionally, for reference the C.I. during the last 10 minutes of the training period was also determined. Numbers of flies are indicated above each bar for all groups. The levels of significance are indicated as follows; *=p<0.05; **=p<0.005; ***=p<0.0001.
Restoration of short-term memory with mGluR antagonists. To establish that the failure to observe memory was not due to a problem with recognizing or processing the appropriate cues from the virgin female target, we used a modified version of the conditioned courtship paradigm where the male is paired with a mated female target subsequent to training (Kane et al., 1997; Joiner and Griffith, 1997; Joiner and Griffith, 1999; Kamashev et al., 1999). Again, with pharmacologic treatment it is necessary to utilize more then one compound to confirm the specificity of the target, so in this case we used four mGluR antagonists. […] It is also important to note that the robust deficit in synaptic plasticity in FS flies, with regard to memory, is a critical extension of the previous models of Fragile X syndrome in model organisms, since this is one of the most prominent aspects of the human disorder. Furthermore, we have shown that antagonism of the mGluRs can restore synaptic plasticity in the Drosophila model of Fragile X syndrome.

[4] = 5 day old, MPEP 200 μg/ml (86.6 μM) in development, with or without adulthood (M-M, M-CT)
[5] = 5 day old, MPEP 1,000 μg/ml (433.0 μM) in food in adulthood (CT-M)

SMILES | naive courtship ([1]; 5 day old) | naive courtship ([2]; 5 day old) | short-term memory, mated female target [3] | memory at 60 minutes post training, mated female target [3] | naive courtship activity ([1]; 5 day old adults, 573 mM MPPG (p<0.0001) or 348 μM MTPG (p<0.005)) | naive courtship activity ([2]; 5 day old adults, 573 mM MPPG or 348 μM MTPG, p<0.0001 for both) | naive courtship activity ([1]; 20-day-old, MPEP (86.6 μM) in adulthood only (CT-M)) | naive courtship activity ([1]; 20-day-old, MPEP (86.6 μM) in development and adulthood (M-M)) | naive courtship activity ([1]; 20-day-old, MPEP (86.6 μM) in development only (M-CT)) | naive courtship activity [1, 4] | naive courtship activity ([1]; 5 day old, MPEP 200 μg/ml (86.6 μM) in food in adulthood only (CT-M), p<0.005) | naive courtship behavior [1, 5] | naive courtship activity ([2]; 5 day old, MPEP 200 μg/ml (86.6 μM) in adulthood only (CT-M), p<0.0001) | naive courtship activity [2, 4] | naive courtship behavior [2, 5]
N[C@](CC1c2ccccc2Oc2ccccc21)(C(=O)O)[C@H]1C[C@@H]1C(=O)O [LY341495, (2S)-2-amino-2-[(1S,2S)-2-carboxycycloprop-1-yl]-3-(xanth-9-yl) propionic acid] | significantly increased naive courtship | suppressed naive courtship | demonstrated restoration of short-term memory | demonstrate memory at 60 minutes post training | – | – | – | – | – | – | – | – | – | – | –
CC(N)(C(=O)O)c1ccc(-c2nnn[nH]2)cc1 (racemic) [MTPG, (RS)-α-methyl-4-tetrazolylphenylglycine] | – | – | demonstrated restoration of short-term memory | demonstrate memory at 60 minutes post training | significant increase in courtship activity | significant decrease in courtship activity | – | – | – | – | – | – | – | – | –
Cc1cccc(C#Cc2ccccc2)n1 [MPEP, 2-methyl-6-(phenylethynyl)pyridine] | significantly increased naive courtship | suppressed naive courtship | demonstrated restoration of short-term memory | demonstrate memory at 60 minutes post training | – | – | significant increase in courtship activity | significant increase in courtship activity | did not demonstrate an increase in naive courtship activity | courtship levels similar to CT-CT Rescue flies | significant increase in courtship activity | reduced | depressed relative to CT-CT Rescue flies | courted as vigorously as CT-CT Rescues flies | reduced

Source: patent publication US20080187492A1, “Drosophila Models For Diseases Affecting Learning and Memory” (priority 2004, published 2008)
